Data published in ChEMBL document CHEMBL3751840, “Peptide-based inhibitors of protein-protein interactions” (Bioorg Med Chem Lett, 2016).
Values belong to the molecule of their own block, whether it stands above or below them. Starred links: 1 amine or outer side, 2 acyl side, 3 side chain; linkers in the order of their positions; H or OH if unused. Positions of bridges follow the written chain, without caps; N, C: chain ends. Non-standard residues stand in square brackets, D forms with d. Residues, ends and D or L forms follow the SMILES beside them. X1 = O=C([C@H]1CNC[C@@H]1N[*:1])[*:2]; X2 = O=C([C@H]1CCC[C@@H]1N[*:1])[*:2]

Key:
Estrogen receptor = target: T1, Estrogen receptor (Homo sapiens, UniProt P03372); assay: Binding affinity to ERalpha (unknown origin)
T1 sequence (P03372 whole entry): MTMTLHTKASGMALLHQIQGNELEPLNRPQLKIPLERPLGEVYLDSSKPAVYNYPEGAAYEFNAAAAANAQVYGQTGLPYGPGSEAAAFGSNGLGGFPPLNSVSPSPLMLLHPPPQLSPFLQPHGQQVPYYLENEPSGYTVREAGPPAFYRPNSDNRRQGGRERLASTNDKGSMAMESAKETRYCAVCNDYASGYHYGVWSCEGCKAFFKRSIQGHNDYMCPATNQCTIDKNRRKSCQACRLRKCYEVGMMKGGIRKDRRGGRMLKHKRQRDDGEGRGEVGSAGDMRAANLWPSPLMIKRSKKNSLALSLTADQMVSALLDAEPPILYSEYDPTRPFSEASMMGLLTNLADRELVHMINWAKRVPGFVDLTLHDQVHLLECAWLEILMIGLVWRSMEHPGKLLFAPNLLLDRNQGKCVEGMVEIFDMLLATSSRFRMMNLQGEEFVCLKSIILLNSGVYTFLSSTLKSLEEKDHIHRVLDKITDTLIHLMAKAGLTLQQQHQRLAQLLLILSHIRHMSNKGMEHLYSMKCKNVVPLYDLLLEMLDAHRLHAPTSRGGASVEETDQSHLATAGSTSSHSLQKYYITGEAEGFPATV

[1] = target: Tumour suppressor p53/oncoprotein Mdm2 (Homo sapiens, UniProt P04637+Q00987); assay: Inhibition of p53-HDM2 (unknown origin) interaction; type: protein assay
Bcl-2-like protein 1 = Bcl-2-like protein 1 (Homo sapiens, UniProt Q07817); assay: Inhibition of BCL-xL-BH3 domain (unknown origin) interaction
[2] = target: E3 ubiquitin-protein ligase Mdm2 (Homo sapiens, UniProt Q00987); assay: Binding affinity to MDM2 (unknown origin)
[3] = target: Menin/Histone-lysine N-methyltransferase MLL (Homo sapiens, UniProt O00255+Q03164); assay: Inhibition of menin-MLL (unknown origin) interaction; type: protein assay

Chain of Tumour suppressor p53/oncoprotein Mdm2 (P04637 whole entry, the tested form may be a part): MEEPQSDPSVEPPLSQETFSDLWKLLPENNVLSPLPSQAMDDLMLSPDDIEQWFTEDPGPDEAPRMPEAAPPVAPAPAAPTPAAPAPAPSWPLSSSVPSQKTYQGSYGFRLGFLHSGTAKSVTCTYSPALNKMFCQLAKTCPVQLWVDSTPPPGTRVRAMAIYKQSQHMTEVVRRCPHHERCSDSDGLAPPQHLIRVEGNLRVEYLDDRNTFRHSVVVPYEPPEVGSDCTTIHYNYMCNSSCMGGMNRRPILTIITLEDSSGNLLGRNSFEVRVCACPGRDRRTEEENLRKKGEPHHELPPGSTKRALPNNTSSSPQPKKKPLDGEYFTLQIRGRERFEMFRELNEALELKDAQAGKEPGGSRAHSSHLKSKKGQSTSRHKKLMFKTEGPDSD
Chain of Tumour suppressor p53/oncoprotein Mdm2 (Q00987 whole entry, the tested form may be a part): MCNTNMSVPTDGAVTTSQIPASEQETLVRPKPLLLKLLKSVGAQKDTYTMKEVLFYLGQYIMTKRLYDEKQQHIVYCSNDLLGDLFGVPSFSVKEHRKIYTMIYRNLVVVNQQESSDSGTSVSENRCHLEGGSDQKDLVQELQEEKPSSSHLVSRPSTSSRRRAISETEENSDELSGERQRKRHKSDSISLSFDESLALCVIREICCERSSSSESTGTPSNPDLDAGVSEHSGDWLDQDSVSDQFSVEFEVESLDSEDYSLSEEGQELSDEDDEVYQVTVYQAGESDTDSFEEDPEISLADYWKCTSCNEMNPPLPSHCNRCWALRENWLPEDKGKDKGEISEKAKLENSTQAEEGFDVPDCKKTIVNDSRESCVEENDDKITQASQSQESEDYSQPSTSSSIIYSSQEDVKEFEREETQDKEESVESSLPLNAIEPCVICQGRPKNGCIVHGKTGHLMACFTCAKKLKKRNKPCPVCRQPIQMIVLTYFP
Chain of Bcl-2-like protein 1 (Q07817 whole entry, the tested form may be a part): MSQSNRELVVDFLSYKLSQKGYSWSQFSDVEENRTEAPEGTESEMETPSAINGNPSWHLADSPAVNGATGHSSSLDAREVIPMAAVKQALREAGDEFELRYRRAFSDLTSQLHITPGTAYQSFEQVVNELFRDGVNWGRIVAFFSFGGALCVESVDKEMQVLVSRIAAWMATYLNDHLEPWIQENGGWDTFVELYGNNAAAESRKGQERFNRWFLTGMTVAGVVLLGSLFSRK
Chain of E3 ubiquitin-protein ligase Mdm2 (Q00987 whole entry): as the sequence (Q00987 whole entry, the tested form may be a part) above

Kd (Estrogen receptor): 352 nM
Structure (SMILES): CC(=O)N[C@@H](Cc1cnc[nH]1)C(=O)N[C@@H](CCCCN)C(=O)N[C@@]1(C)CCCCCCCC[C@@](C)(C(=O)N[C@@H](CC(C)C)C(=O)N[C@@H](CCC(N)=O)C(=O)N[C@@H](CC(=O)O)C(=O)N[C@@H](CO)C(N)=O)NC(=O)[C@H](CCC(N)=O)NC(=O)[C@H](Cc2cnc[nH]2)NC(=O)[C@H](CC(C)C)NC1=O

Structure (SMILES): CC(C)CCN(CC(=O)N(CCS(N)(=O)=O)CC(=O)N(CC(N)=O)Cc1ccc([N+](=O)[O-])cc1)C(=O)CN(CCCP(=O)(O)O)C(=O)CN(Cc1ccc([N+](=O)[O-])cc1)C(=O)CN(CCc1c[nH]c2ccccc12)C(=O)CN(CCCCP(=O)(O)O)C(=O)CN(Cc1ccc([N+](=O)[O-])cc1)C(=O)CN(CCc1ccccc1)C(=O)CNCc1ccc([N+](=O)[O-])cc1
IC50 [1]: 6600 nM

IC50 [1]: 140 nM
Structure (SMILES): CC(C)C[C@@H]1NC(=O)[C@H](Cc2c[nH]c3ccc(Cl)cc23)NC(=O)[C@H](CCC(=O)O)NC(=O)[C@H](Cc2ccccc2)NC(=O)[C@@H]2CCCN2C(=O)[C@H]2CCCN2C(=O)[C@H](Cc2ccccc2)NC(=O)[C@H](CCC(=O)O)NC(=O)[C@H](Cc2c[nH]c3ccccc23)NC(=O)[C@H](CC(=O)O)NC1=O

Ki (Bcl-2-like protein 1): 2 nM
Structure (SMILES): CC(=O)N[C@H]1CNC[C@@H]1C(=O)N[C@@H](C)C(=O)N[C@H]1CCC[C@@H]1C(=O)N[C@@H](CCCNC(=N)N)C(=O)N[C@H]1CCC[C@@H]1C(=O)N[C@@H](CC(C)C)C(=O)N[C@H]1CCC[C@@H]1C(=O)N[C@@H](CCCCN)C(=O)N[C@@H](CC(C)C)C(=O)NCC(=O)N[C@@H](CC(=O)O)C(=O)N[C@@H](C)C(=O)N[C@@H](Cc1ccccc1)C(=O)N[C@@H](CC(N)=O)C(=O)N[C@@H](CCCNC(=N)N)C(N)=O (Ac-[X1]A[X2]R[X2]L[X2]KLGDAFNR-NH2)

Kd [2]: 17700 nM
Structure (SMILES): CC(C)C[C@H](NC(=O)[C@@H]1CSSC[C@H](N)C(=O)N[C@@H](CC(N)=O)C(=O)N[C@H]2CSSC[C@H](NC(=O)[C@H](CC(C)C)NC(=O)[C@H](Cc3ccccc3)NC(=O)[C@H]([C@@H](C)O)NC(=O)[C@H](CCC(=O)O)NC(=O)[C@@H]3CCCN3C(=O)[C@H](C)NC(=O)[C@H](CCCCN)NC2=O)C(=O)N[C@@H](Cc2ccc(O)cc2)C(=O)N[C@@H](Cc2c[nH]c3ccccc23)C(=O)N[C@@H](CCCNC(=N)N)C(=O)N1)C(=O)N[C@@H](CCC(N)=O)C(=O)N[C@@H](Cc1cnc[nH]1)C(N)=O (H-CNCKAPETFLCYWRCLQH-NH2; disulfide 1-15, 3-11)

Ki [3]: 23.8 nM
Structure (SMILES): CC(=O)N[C@@H](CCCNC(=N)N)C(=O)N[C@@H](Cc1c[nH]c2ccccc12)C(=O)NC1CCCCCCCNC(=O)[C@@H]2CCCN2C(=O)[C@H](CCCNC(=N)N)NC(=O)[C@H](C)NC(=O)[C@@H]2CCCN2C(=O)C(Cc2ccccc2)NC1=O (single isomer, unassigned)
